Test [1] has as its target T1, Myosin light chain kinase family member 4 (Homo sapiens) (UniProt Q86YV6).
T1 sequence (whole entry): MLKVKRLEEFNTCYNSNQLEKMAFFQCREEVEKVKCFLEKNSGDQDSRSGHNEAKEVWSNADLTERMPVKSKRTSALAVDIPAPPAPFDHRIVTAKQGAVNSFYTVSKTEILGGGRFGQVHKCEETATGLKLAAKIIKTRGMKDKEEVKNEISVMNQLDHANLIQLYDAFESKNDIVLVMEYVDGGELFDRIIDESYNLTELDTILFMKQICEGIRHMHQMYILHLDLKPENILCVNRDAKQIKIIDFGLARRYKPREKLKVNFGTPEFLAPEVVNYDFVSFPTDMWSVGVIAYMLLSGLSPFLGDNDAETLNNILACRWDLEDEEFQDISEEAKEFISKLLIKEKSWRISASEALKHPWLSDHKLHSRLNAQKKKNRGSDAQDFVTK
As to conditions: at 10 µM.

Test [2] has as its target Ribosomal protein S6 kinase alpha-6 (Homo sapiens, UniProt Q9UK32). Kind of test: Selectivity interaction (KinomeScan (DiscoverX)) EUB0001049a RPS6KA6. Conditions: at 1 µM.
Test [3] has as its target cAMP-dependent protein kinase catalytic subunit alpha (Homo sapiens, UniProt P17612). As to the kind of experiment: Selectivity interaction (KinomeScan (DiscoverX)) EUB0000655a PRKACA. As to conditions: at 10 µM.
Test [4] has as its target Tyrosine-protein kinase FRK (Homo sapiens) (UniProt P42685). Kind of test: Selectivity interaction (KinomeScan (DiscoverX)) EUB0000655a FRK. Conditions: at 10 µM.
Test [5] addresses MAP/microtubule affinity-regulating kinase 3 (Homo sapiens) (UniProt P27448). As to the kind of experiment: Selectivity interaction (Kinase panel (Carna Biosciences)) EUB0001542aTs MARK3. Conditions: at 1 µM.
The target of test [6] is DNA mismatch repair protein Msh6 (Homo sapiens) (UniProt P52701). As to the kind of experiment: Selectivity interaction (PWWP, WD40, and Tudor domain panel (DSLS measurements, literature)) EUB0000270b MSH6.
Chain of DNA mismatch repair protein Msh6 (Homo sapiens) (P52701 whole entry, the tested form may be a part): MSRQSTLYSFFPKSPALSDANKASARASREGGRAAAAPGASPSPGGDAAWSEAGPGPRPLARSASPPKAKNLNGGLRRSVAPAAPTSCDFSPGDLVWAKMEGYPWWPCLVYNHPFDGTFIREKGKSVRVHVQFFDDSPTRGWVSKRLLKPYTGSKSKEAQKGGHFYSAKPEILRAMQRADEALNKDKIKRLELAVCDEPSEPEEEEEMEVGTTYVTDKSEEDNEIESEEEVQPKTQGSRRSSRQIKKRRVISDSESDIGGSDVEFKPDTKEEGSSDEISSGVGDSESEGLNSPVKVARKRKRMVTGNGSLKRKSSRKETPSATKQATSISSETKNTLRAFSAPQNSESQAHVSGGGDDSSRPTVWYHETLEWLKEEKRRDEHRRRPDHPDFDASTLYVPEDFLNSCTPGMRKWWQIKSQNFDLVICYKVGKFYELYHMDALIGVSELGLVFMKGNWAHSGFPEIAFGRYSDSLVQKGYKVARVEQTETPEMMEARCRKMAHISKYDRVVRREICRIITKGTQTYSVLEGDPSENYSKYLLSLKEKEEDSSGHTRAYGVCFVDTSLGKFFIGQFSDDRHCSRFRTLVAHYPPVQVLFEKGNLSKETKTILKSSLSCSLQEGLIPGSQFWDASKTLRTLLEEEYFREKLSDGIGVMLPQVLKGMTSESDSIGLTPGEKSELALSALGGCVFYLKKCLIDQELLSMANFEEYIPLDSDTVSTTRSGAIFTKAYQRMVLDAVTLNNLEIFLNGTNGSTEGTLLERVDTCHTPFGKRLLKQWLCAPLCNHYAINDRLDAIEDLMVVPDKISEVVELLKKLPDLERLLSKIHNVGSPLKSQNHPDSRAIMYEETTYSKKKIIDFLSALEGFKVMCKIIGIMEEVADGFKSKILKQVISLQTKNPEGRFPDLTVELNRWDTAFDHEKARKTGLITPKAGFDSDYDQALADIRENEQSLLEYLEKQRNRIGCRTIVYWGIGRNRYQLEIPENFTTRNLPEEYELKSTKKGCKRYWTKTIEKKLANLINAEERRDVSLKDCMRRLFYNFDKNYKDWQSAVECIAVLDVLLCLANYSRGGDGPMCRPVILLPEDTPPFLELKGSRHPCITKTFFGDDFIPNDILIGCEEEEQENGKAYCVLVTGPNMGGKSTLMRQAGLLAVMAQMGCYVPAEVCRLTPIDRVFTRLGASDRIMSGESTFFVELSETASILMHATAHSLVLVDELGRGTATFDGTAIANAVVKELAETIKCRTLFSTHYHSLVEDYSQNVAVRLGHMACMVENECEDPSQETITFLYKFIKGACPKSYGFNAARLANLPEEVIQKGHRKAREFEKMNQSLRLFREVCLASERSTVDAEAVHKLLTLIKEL
The target of test [7] is Mitogen-activated protein kinase 4 (Homo sapiens) (UniProt P31152). As to the kind of experiment: Selectivity interaction (KinomeScan (DiscoverX)) EUB0000045b MAPK4.
Chain of Mitogen-activated protein kinase 4 (Homo sapiens) (P31152 whole entry): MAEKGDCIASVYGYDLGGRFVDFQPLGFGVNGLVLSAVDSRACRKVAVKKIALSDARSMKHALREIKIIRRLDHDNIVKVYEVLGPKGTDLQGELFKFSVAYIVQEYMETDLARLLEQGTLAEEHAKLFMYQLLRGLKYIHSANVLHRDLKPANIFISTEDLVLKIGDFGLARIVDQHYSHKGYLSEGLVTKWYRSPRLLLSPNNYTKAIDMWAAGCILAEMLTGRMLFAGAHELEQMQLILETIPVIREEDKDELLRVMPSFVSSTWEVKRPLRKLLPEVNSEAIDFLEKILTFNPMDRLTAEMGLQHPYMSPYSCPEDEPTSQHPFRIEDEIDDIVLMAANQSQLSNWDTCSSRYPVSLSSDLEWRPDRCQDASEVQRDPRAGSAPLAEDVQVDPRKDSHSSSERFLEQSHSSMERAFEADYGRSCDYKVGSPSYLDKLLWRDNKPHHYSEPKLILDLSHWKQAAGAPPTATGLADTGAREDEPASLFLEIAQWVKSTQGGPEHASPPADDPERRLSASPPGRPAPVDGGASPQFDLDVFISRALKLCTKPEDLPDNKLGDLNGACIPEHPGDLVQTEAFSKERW
The target of test [8] is T2, Mitogen-activated protein kinase kinase kinase kinase 3 (Homo sapiens) (UniProt Q8IVH8).
T2 sequence (whole entry): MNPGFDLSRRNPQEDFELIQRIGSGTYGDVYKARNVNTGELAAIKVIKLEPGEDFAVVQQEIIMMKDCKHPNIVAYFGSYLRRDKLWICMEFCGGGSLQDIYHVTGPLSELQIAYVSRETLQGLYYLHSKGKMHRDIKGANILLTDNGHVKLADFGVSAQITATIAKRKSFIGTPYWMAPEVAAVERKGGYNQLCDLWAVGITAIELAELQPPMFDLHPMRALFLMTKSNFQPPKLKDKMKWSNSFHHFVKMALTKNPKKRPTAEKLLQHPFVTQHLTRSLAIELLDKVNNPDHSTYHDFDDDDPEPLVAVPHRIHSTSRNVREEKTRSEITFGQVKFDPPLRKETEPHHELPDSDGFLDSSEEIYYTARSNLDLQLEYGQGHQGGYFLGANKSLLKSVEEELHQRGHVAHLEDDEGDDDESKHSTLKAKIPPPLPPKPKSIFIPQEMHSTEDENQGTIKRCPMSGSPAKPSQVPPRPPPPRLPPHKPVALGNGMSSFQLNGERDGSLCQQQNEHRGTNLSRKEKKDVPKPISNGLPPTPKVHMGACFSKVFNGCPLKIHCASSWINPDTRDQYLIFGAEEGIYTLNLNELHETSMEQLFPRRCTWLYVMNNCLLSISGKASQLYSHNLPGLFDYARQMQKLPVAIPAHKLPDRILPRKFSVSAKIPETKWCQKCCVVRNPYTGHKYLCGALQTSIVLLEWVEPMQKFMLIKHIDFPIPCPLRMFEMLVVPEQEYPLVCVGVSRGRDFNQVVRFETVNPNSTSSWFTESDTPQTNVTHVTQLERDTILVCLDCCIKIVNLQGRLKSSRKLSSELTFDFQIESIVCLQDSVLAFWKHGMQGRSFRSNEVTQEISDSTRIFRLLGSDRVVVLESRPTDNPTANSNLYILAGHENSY
As to the kind of experiment: Selectivity interaction (KinomeScan (DiscoverX)) EUB0000666a MAP4K3. Conditions: at 10 µM.

The target of test [9] is Proto-oncogene tyrosine-protein kinase Src (Homo sapiens, UniProt P12931). Kind of test: Selectivity interaction (ActivX KiNativ screen (ex vivo kinase selectivity in human PBMCs)) EUB0001619a SRC. Type of test: cell-based. Conditions: PBMC, at 1 µM.
Chain of Proto-oncogene tyrosine-protein kinase Src (P12931 2-536 limits assumed): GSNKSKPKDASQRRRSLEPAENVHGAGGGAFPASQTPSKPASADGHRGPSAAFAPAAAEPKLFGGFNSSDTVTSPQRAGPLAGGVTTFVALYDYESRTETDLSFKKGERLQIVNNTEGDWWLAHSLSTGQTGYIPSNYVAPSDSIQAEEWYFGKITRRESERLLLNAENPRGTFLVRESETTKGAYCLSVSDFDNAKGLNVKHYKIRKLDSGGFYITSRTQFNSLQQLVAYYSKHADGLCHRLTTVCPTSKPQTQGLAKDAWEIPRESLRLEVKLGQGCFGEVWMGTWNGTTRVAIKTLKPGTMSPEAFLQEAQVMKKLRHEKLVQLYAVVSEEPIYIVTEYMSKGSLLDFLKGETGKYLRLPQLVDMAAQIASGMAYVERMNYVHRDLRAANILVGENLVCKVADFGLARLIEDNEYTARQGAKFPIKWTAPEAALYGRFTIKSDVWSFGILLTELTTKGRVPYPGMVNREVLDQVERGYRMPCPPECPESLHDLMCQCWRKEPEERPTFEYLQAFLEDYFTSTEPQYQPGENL
In test [10] the target is T3, Mixed lineage kinase domain-like protein (Homo sapiens) (UniProt Q8NB16).
T3 sequence (whole entry): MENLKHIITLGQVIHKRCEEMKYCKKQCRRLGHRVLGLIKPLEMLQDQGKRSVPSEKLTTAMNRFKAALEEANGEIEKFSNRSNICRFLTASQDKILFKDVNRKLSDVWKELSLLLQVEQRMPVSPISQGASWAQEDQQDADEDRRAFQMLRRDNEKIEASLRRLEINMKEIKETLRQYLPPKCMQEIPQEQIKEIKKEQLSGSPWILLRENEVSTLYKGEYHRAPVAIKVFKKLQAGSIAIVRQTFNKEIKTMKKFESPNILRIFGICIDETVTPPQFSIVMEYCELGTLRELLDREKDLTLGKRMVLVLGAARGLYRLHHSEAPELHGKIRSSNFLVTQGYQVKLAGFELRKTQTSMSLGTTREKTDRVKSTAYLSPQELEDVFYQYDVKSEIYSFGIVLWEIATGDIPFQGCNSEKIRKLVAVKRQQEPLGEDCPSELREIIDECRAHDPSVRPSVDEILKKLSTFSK
Kind of test: Selectivity interaction (Kinase panel (KiNativ target engagement assay in Jurkat cells)) EUB0001635a MLKL. As to conditions: at 1 µM. Type of test: cell-based.

For test [11], the target named is Ribosomal protein S6 kinase alpha-3 (Homo sapiens, UniProt P51812). As to the kind of experiment: Selectivity interaction (Kinase panel (KiNativ target engagement assay in Jurkat cells)) EUB0001635a RPS6KA3. Format: cell-based. Conditions: Selectivity number of off-targets 0.0, Selectivity number of targets 233.0, Source Knowledge https://www.sciencedirect.com/science/article/pii/S2451945619300674?via%3Dihub, at 1 µM.
Chain of Ribosomal protein S6 kinase alpha-3 (P51812 whole entry): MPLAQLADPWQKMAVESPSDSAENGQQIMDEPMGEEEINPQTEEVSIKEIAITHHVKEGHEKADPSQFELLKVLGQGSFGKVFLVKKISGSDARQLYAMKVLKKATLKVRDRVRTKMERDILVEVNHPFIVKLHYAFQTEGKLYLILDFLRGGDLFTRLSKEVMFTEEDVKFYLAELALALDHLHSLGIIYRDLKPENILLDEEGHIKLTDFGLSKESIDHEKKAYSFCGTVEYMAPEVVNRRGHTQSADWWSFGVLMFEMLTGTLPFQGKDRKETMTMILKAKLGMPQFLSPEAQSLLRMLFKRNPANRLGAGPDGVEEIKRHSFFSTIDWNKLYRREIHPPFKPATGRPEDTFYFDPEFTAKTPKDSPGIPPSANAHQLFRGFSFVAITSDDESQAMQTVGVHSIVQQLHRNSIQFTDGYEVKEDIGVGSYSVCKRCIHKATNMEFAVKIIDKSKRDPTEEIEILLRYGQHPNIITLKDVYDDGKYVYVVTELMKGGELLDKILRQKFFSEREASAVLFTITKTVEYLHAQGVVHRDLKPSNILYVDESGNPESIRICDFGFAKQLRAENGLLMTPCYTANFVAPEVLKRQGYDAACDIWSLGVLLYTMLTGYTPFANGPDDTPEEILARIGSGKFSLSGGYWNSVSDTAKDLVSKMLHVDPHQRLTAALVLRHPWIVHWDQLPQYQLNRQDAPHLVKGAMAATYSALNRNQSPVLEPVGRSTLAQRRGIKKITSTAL

Chain of Tyrosine-protein kinase FRK (Homo sapiens) (P42685 whole entry): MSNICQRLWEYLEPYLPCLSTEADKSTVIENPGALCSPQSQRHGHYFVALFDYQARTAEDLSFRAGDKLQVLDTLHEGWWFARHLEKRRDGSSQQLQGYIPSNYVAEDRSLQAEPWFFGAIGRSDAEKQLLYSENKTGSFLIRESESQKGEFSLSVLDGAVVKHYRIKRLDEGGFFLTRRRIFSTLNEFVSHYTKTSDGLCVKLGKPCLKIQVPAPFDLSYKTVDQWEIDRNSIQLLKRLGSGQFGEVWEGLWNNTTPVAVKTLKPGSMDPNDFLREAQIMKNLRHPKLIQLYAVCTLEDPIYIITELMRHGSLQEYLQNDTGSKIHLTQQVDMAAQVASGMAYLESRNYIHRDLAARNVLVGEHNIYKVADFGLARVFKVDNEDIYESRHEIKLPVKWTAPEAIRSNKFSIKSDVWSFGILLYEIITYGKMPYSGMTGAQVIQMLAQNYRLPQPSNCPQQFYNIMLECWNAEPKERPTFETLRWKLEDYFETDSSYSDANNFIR
Chain of MAP/microtubule affinity-regulating kinase 3 (Homo sapiens) (P27448 whole entry, looked up, the tested form may be a part): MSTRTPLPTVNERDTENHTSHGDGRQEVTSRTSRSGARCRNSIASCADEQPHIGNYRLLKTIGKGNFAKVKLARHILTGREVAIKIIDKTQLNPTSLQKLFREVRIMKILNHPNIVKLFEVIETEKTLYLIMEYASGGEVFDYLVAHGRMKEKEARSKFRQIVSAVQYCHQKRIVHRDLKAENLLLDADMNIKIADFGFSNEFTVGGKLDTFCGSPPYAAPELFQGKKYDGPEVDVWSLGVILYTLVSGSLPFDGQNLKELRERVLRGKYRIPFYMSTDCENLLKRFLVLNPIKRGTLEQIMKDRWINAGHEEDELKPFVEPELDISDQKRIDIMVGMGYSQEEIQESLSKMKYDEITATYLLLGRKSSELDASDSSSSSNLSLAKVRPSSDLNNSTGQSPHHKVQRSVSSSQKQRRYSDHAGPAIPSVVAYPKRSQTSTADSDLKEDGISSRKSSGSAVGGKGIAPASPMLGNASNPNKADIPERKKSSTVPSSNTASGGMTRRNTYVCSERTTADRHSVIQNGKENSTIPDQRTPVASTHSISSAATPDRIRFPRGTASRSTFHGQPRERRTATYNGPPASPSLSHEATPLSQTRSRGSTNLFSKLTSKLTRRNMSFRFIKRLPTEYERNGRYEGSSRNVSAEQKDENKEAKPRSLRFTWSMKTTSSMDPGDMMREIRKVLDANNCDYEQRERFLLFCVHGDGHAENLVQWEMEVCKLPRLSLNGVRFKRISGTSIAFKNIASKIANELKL

Turning to `CCN(CC)CCCCNc1ncc2cc(-c3cc(OC)cc(OC)c3)c(NC(=O)NC(C)(C)C)nc2n1`, the % of control in test [1] worked out at 100%.

Regarding `COc1cc(Nc2nc(C)cc(-c3cnn4nc(OC)ccc34)n2)cc(C(F)(F)F)c1`, the % of control in test [2] was determined as 82%.

As to `CN(C)CCOc1ccc(-c2nc(-c3ccncc3)c(-c3ccc4c(c3)CC/C4=N\O)[nH]2)cc1`, the % of control in test [3] was found to be 67%; in [4] it was 96%.

In [5], `Cn1cc(Nc2nccc(N3CC4CCC(C3)N4C(=O)[C@@H]3CC3(F)F)n2)cn1` displayed a % of inhibition of 50%.

Take `Cc1cc(CN)cc(C)c1-c1ncn(C)c1-c1cncn1C`: the dTagg in test [6] was -0.2 K.

Turning to `C=CC(=O)Nc1cc(-n2c(=O)ccc3cnc4ccc(-c5ccc(NS(C)(=O)=O)cc5)cc4c32)ccc1C`, the % of control in [7] (at 1 µM) was 91%; in test [7] (at 10 µM) it was 100%.

As to `O=C(NOC[C@H](O)CO)c1ccc(F)c(F)c1Nc1ccc(I)cc1F`, the % of control in [8] is 87%.

Consider `N#Cc1cccc(-c2c[nH]c3ncnc(N4CCOCC4)c23)c1`, for which, in test [9], the % of inhibition was 30%.

In the case of `C=CC(=O)Nc1ccc(C(=O)Nc2[nH]nc3c2CN(C(=O)N[C@H](CN(C)C)c2ccccc2)C3(C)C)cc1`, the % of engagement in test [10] was determined as 5.6%; in test [11], 12%.

The values above are taken from ChEMBL document CHEMBL5465560, “Selectivity Literature for EUbOPEN Chemogenomic Library” (2024).
